Test results published in the supplement of paper PMC10307832.

Experiments:
Assay in all cases: relative viability (nuclei count vs DMSO), 5 days (fraction); higher = more cells survive
ABC-1 = tested on: ABC-1
Procedure, shortened: (§1)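 Nuclei were stained with Hoechst during a one-step fixation (final 0.05% Triton X-100, 1% formaldehyde, 1 ug/ml Hoechst) carried out 5 days after dosing, then counted on 4× images. The cells, lung cancer lines in 1536-well plates, had been dosed by pin tool the day after seeding with one drug alone or a fixed anchor-drug dose plus five library-drug doses (not always all listed) in √10 steps. Relative viability is the nuclei count in treated wells divided by that in vehicle wells, and each value is the median of duplicate plates.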

BEN = tested on: BEN
Procedure, shortened: as §1

EKVX = tested on: EKVX
Procedure, shortened: as §1

EPLC-272H = tested on: EPLC-272H
Procedure, shortened: as §1

HCC-827 = tested on: HCC-827
Procedure, shortened: as §1

HOP-62 = tested on: HOP-62
Procedure, shortened: as §1

LU99A = tested on: LU99A
Procedure, shortened: as §1

LXF-289 = tested on: LXF-289
Procedure, shortened: as §1

NCI-H1563 = tested on: NCI-H1563
Procedure, shortened: as §1

NCI-H1666 = tested on: NCI-H1666
Procedure, shortened: as §1

NCI-H1975 = tested on: NCI-H1975
Procedure, shortened: as §1

NCI-H2170 = tested on: NCI-H2170
Procedure, shortened: as §1

NCI-H23 = tested on: NCI-H23
Procedure, shortened: as §1

NCI-H2405 = tested on: NCI-H2405
Procedure, shortened: as §1

NCI-H3122 = tested on: NCI-H3122
Procedure, shortened: as §1

NCI-H322M = tested on: NCI-H322M
Procedure, shortened: as §1

NCI-H358 = tested on: NCI-H358
Procedure, shortened: as §1

NCI-H520 = tested on: NCI-H520
Procedure, shortened: as §1

NCI-H727 = tested on: NCI-H727
Procedure, shortened: as §1

NCI-H838 = tested on: NCI-H838
Procedure, shortened: as §1

SK-MES-1 = tested on: SK-MES-1
Procedure, shortened: as §1

UMC-11 = tested on: UMC-11
Procedure, shortened: as §1

COCC1(CO)C(=O)C2CCN1CC2 (configuration not stated) [PRIMA-1MET] + N=C(N)NC(=N)NCCc1ccccc1 [Phenformin] (partner 250 µM)
relative viability (ABC-1; first compound 0.2 µM): 0.233 | relative viability (ABC-1; first compound 0.6325 µM): 0.2 | relative viability (ABC-1; first compound 2 µM): 0.23 | relative viability (ABC-1; first compound 6.325 µM): 0.231 | relative viability (ABC-1; first compound 20 µM): 0.199 | relative viability (BEN; first compound 0.2 µM): 0.268 | relative viability (BEN; first compound 0.6325 µM): 0.275 | relative viability (BEN; first compound 6.325 µM): 0.217 | relative viability (BEN; first compound 20 µM): 0.224 | relative viability (EKVX; first compound 0.2 µM): 0.219 | relative viability (EKVX; first compound 0.6325 µM): 0.221 | relative viability (EKVX; first compound 6.325 µM): 0.217 | relative viability (EKVX; first compound 20 µM): 0.222 | relative viability (EPLC-272H; first compound 2 µM): 0.286 | relative viability (EPLC-272H; first compound 6.325 µM): 0.314 | relative viability (EPLC-272H; first compound 20 µM): 0.085 | relative viability (HCC-827; first compound 0.2 µM): 0.433 | relative viability (HCC-827; first compound 0.6325 µM): 0.416 | relative viability (HCC-827; first compound 2 µM): 0.344 | relative viability (HCC-827; first compound 6.325 µM): 0.367 | relative viability (HCC-827; first compound 20 µM): 0.372 | relative viability (HOP-62; first compound 0.2 µM): 0.668 | relative viability (HOP-62; first compound 0.6325 µM): 0.686 | relative viability (HOP-62; first compound 2 µM): 0.648 | relative viability (HOP-62; first compound 6.325 µM): 0.694 | relative viability (HOP-62; first compound 20 µM): 0.311 | relative viability (LU99A; first compound 0.2 µM): 0.646 | relative viability (LU99A; first compound 0.6325 µM): 0.736 | relative viability (LU99A; first compound 2 µM): 0.734 | relative viability (LU99A; first compound 6.325 µM): 0.831 | relative viability (LU99A; first compound 20 µM): 0.0482 | relative viability (LXF-289; first compound 0.2 µM): 0.491 | relative viability (LXF-289; first compound 0.6325 µM): 0.482 | relative viability (LXF-289; first compound 2 µM): 0.428 | relative viability (LXF-289; first compound 6.325 µM): 0.513 | relative viability (LXF-289; first compound 20 µM): 0.456 | relative viability (NCI-H1563; first compound 0.2 µM): 0.686 | relative viability (NCI-H1563; first compound 0.6325 µM): 0.673 | relative viability (NCI-H1563; first compound 2 µM): 0.668 | relative viability (NCI-H1563; first compound 6.325 µM): 0.719 | relative viability (NCI-H1563; first compound 20 µM): 0.302 | relative viability (NCI-H1666; first compound 0.2 µM): 0.558 | relative viability (NCI-H1666; first compound 0.6325 µM): 0.548 | relative viability (NCI-H1666; first compound 2 µM): 0.555 | relative viability (NCI-H1666; first compound 6.325 µM): 0.634 | relative viability (NCI-H1666; first compound 20 µM): 0.564 | relative viability (NCI-H1975; first compound 0.2 µM): 0.41 | relative viability (NCI-H1975; first compound 0.6325 µM): 0.4 | relative viability (NCI-H1975; first compound 2 µM): 0.381 | relative viability (NCI-H1975; first compound 6.325 µM): 0.42 | relative viability (NCI-H1975; first compound 20 µM): 0.194 | relative viability (NCI-H2170; first compound 0.2 µM): 0.418 | relative viability (NCI-H2170; first compound 0.6325 µM): 0.416 | relative viability (NCI-H2170; first compound 2 µM): 0.38 | relative viability (NCI-H2170; first compound 6.325 µM): 0.405 | relative viability (NCI-H2170; first compound 20 µM): 0.376 | relative viability (NCI-H23; first compound 0.2 µM): 0.854 | relative viability (NCI-H23; first compound 0.6325 µM): 0.772 | relative viability (NCI-H23; first compound 2 µM): 0.822 | relative viability (NCI-H23; first compound 6.325 µM): 0.842 | relative viability (NCI-H23; first compound 20 µM): 0.561 | relative viability (NCI-H2405; first compound 0.2 µM): 0.296 | relative viability (NCI-H2405; first compound 0.6325 µM): 0.401 | relative viability (NCI-H2405; first compound 6.325 µM): 0.288 | relative viability (NCI-H2405; first compound 20 µM): 0.0656 | relative viability (NCI-H3122; first compound 0.2 µM): 0.367 | relative viability (NCI-H3122; first compound 0.6325 µM): 0.35 | relative viability (NCI-H3122; first compound 6.325 µM): 0.392 | relative viability (NCI-H3122; first compound 20 µM): 0.343 | relative viability (NCI-H322M; first compound 0.2 µM): 0.869 | relative viability (NCI-H322M; first compound 0.6325 µM): 0.549 | relative viability (NCI-H322M; first compound 6.325 µM): 0.804 | relative viability (NCI-H322M; first compound 20 µM): 0.0578 | relative viability (NCI-H358; first compound 0.2 µM): 0.341 | relative viability (NCI-H358; first compound 2 µM): 0.253 | relative viability (NCI-H358; first compound 6.325 µM): 0.279 | relative viability (NCI-H358; first compound 20 µM): 0.0042 | relative viability (NCI-H520; first compound 0.2 µM): 0.605 | relative viability (NCI-H520; first compound 0.6325 µM): 0.501 | relative viability (NCI-H520; first compound 2 µM): 0.314 | relative viability (NCI-H520; first compound 6.325 µM): 0.289 | relative viability (NCI-H520; first compound 20 µM): 0.155 | relative viability (NCI-H727; first compound 0.2 µM): 0.472 | relative viability (NCI-H727; first compound 0.6325 µM): 0.395 | relative viability (NCI-H727; first compound 2 µM): 0.387 | relative viability (NCI-H727; first compound 6.325 µM): 0.342 | relative viability (NCI-H727; first compound 20 µM): 0.124 | relative viability (NCI-H838; first compound 0.2 µM): 0.574 | relative viability (NCI-H838; first compound 0.6325 µM): 0.535 | relative viability (NCI-H838; first compound 2 µM): 0.451 | relative viability (NCI-H838; first compound 6.325 µM): 0.712 | relative viability (NCI-H838; first compound 20 µM): 0.0931 | relative viability (SK-MES-1; first compound 0.2 µM): 0.724 | relative viability (SK-MES-1; first compound 0.6325 µM): 0.731 | relative viability (SK-MES-1; first compound 2 µM): 0.722 | relative viability (SK-MES-1; first compound 6.325 µM): 0.663 | relative viability (SK-MES-1; first compound 20 µM): 0.615 | relative viability (UMC-11; first compound 0.2 µM): 0.348 | relative viability (UMC-11; first compound 0.6325 µM): 0.31 | relative viability (UMC-11; first compound 2 µM): 0.264 | relative viability (UMC-11; first compound 6.325 µM): 0.343 | relative viability (UMC-11; first compound 20 µM): 0.254
